Experimental data taken from PubChem BioAssay AID1996.
≈ marks a conversion by molar mass, not a printed value. Residues, ends and D or L forms follow the SMILES beside them. *: point of attachment. Piperidide = C1CCN(*)CC1; PhAc = O=C(Cc1ccccc1)*

details: buffer; pH 7.4; 200.0 µM

Question: Which solubility kinetic does the source give for `O=c1[nH]c(=O)n(CC2CCCO2)c(O)c1/C=C1\C=Nc2ccccc21` (stereo not given) here?
Answer: Its solubility kinetic is greater than 50.9 µg/mL.

Question: Which solubility kinetic does the source give for `CC(=O)Nc1ccccc1C(F)(F)F` here?
Answer: Its solubility kinetic is 5.5 µg/mL (≈ 27.1 µM).

Question: With `COc1ccc(-c2noc(=O)n2Cc2ccccc2Cl)cc1` as the compound, how does the solubility kinetic read?
Answer: Its solubility kinetic is 17.8 µg/mL (≈ 56.2 µM).

Question: With `CCOc1ncccc1C(=O)Nc1ccccc1F` as the compound, how does the solubility kinetic read?
Answer: The solubility kinetic was 2.5 µg/mL (≈ 9.61 µM).

Question: For `O=C(CSCc1ccccc1)Nc1ccccc1`, which solubility kinetic is on record?
Answer: Its solubility kinetic is greater than 38.6 µg/mL.

Question: For `Cc1cc(C)nc(SCC(=O)Nc2nccs2)n1`, which solubility kinetic is on record?
Answer: Its solubility kinetic is greater than 42.1 µg/mL.

Question: Which solubility kinetic does the source give for `COC(=O)C(CO)Nc1ncnc2onc(-c3ccc(F)cc3)c12` (stereo not given) here?
Answer: Its solubility kinetic is greater than 49.8 µg/mL.

Question: With `Cc1cc(C)n2nc(C(=O)N/N=C/c3cn(C)nc3C)nc2n1` as the compound, how does the solubility kinetic read?
Answer: Its solubility kinetic is greater than 46.8 µg/mL.

Question: With `O=C(NCCCN1CCCC1=O)Nc1cc(Cl)ccc1Cl` as the compound, how does the solubility kinetic read?
Answer: Its solubility kinetic is greater than 49.5 µg/mL.

Question: Which solubility kinetic does the source give for `O=C(Nc1ccccc1F)C(c1ccccc1)c1ccccc1` here?
Answer: Its solubility kinetic is less than 0.7 µg/mL.

Question: For `CN(c1ccccc1)c1ccc([N+](=O)[O-])c2nonc12`, which solubility kinetic is on record?
Answer: Its solubility kinetic is 2.1 µg/mL (≈ 7.77 µM).

Question: For `NC(=O)c1ccc(NC(=O)CNC(c2ccccc2)c2ccccc2)cc1`, which solubility kinetic is on record?
Answer: Its solubility kinetic is 3.7 µg/mL (≈ 10.3 µM).

Question: For `Cc1cccc(N2C(=O)CC(Sc3nccc(C)n3)C2=O)c1` (stereo not given), which solubility kinetic is on record?
Answer: The solubility kinetic was greater than 47 µg/mL.

Question: With `O=C(NNC(=O)c1ccccc1C(=O)O)c1cc2ccccc2o1` as the compound, how does the solubility kinetic read?
Answer: The solubility kinetic was greater than 48.6 µg/mL.

Question: For `O=C(O)CSCc1nc2cccnc2n1C1CCCCC1`, which solubility kinetic is on record?
Answer: Its solubility kinetic is 42.1 µg/mL (≈ 138 µM).

Question: Which solubility kinetic does the source give for `Cc1ccc(CNC(=O)c2c(-c3ccccc3)noc2C)cc1` here?
Answer: Its solubility kinetic is 2.1 µg/mL (≈ 6.85 µM).

Question: Which solubility kinetic does the source give for `CCC(Cc1ccccc1)NC(=O)CCc1ccccc1` (stereo not given) here?
Answer: The solubility kinetic was greater than 42.2 µg/mL.

Question: For `COc1ccc(C(=O)O)c(OC)n1`, which solubility kinetic is on record?
Answer: The solubility kinetic was greater than 27.5 µg/mL.

Question: With `O=C(O)c1ccc(CNC(=O)C23CC4CC(CC(C4)C2)C3)cc1` as the compound, how does the solubility kinetic read?
Answer: Its solubility kinetic is greater than 47 µg/mL.

Question: For `COc1ccc(OC(=O)/C=C/c2ccc([N+](=O)[O-])cc2)cc1`, which solubility kinetic is on record?
Answer: Its solubility kinetic is less than 0.6 µg/mL.

Question: With `Cc1ccc(Nc2c3c(nc4ccccc24)CCC3)cc1.Cl` as the compound, how does the solubility kinetic read?
Answer: The solubility kinetic was 33.4 µg/mL.

Question: For `COc1cc(C(=O)Nc2ccccc2C(=O)Nc2ccccn2)cc(OC)c1OC`, which solubility kinetic is on record?
Answer: The solubility kinetic was 4.6 µg/mL (≈ 11.3 µM).

Question: For `COc1cccc(NC(=O)Cc2ccc3ccccc3c2)c1`, which solubility kinetic is on record?
Answer: The solubility kinetic was 2.2 µg/mL (≈ 7.55 µM).

Question: With `CCOC(=O)N1CCN=C1SCc1ccc(C(F)(F)F)cc1` as the compound, how does the solubility kinetic read?
Answer: Its solubility kinetic is 13.6 µg/mL (≈ 40.9 µM).

Question: Which solubility kinetic does the source give for `O=[N+]([O-])c1cccnc1Oc1ccc(F)cc1F` here?
Answer: Its solubility kinetic is 28.3 µg/mL (≈ 112 µM).

Question: With `CCCN1C(=S)c2ccccc2C1c1ccccc1` (stereo not given) as the compound, how does the solubility kinetic read?
Answer: Its solubility kinetic is 8.8 µg/mL (≈ 32.9 µM).

Question: Which solubility kinetic does the source give for `CC(C)N1C(=O)CCC1C(=O)NCc1cccs1` (stereo not given) here?
Answer: Its solubility kinetic is greater than 40 µg/mL.

Question: For `O=C(CNC(=O)Cc1ccccc1)NCC(=O)N1CCCCC1` (PhAc-Gly-Gly-Piperidide), which solubility kinetic is on record?
Answer: Its solubility kinetic is greater than 47.6 µg/mL.

Question: Which solubility kinetic does the source give for `CCOc1ccc(N2CC(C(=O)N3CC(C)OC(C)C3)CC2=O)cc1` (stereo not given) here?
Answer: The solubility kinetic was greater than 52 µg/mL.

Question: With `CC(C)(C)N1CSC(=S)N(Cc2ccccc2)C1` as the compound, how does the solubility kinetic read?
Answer: Its solubility kinetic is 16.4 µg/mL (≈ 58.5 µM).

Question: For `CC(NC(=O)NC(=O)c1ccc(F)cc1)C1CC1` (stereo not given), which solubility kinetic is on record?
Answer: The solubility kinetic was 16.2 µg/mL (≈ 64.7 µM).

Question: For `Cc1nc(SCC(=O)N2CCOCC2)c2c(C)c(C)sc2n1`, which solubility kinetic is on record?
Answer: The solubility kinetic was 49.1 µg/mL (≈ 145 µM).

Question: Which solubility kinetic does the source give for `Cc1ccc(SCC(=O)NCCc2ccccc2)cc1` here?
Answer: Its solubility kinetic is 20.7 µg/mL (≈ 72.5 µM).

Question: Which solubility kinetic does the source give for `Cc1ccc(OCC(=O)NCCNC(=O)c2cnccn2)cc1C` here?
Answer: The solubility kinetic was 46.3 µg/mL (≈ 141 µM).

Question: For `O=C1NC2=C(C(=O)CCC2)C(c2ccc(OC(F)F)cc2)N1` (stereo not given), which solubility kinetic is on record?
Answer: The solubility kinetic was 41.8 µg/mL (≈ 136 µM).

Question: Which solubility kinetic does the source give for `COc1ccccc1C(=O)Nc1sc2c(c1C#N)CCC2` here?
Answer: Its solubility kinetic is 0.5 µg/mL (≈ 1.68 µM).

Question: With `CCc1nc(Nc2ccc(O)cc2)c2oc3ccccc3c2n1.Cl` as the compound, how does the solubility kinetic read?
Answer: Its solubility kinetic is 1.2 µg/mL.

Question: With `CCOc1ccc(/C=C2\SC(=S)N(C)C2=O)cc1OC` as the compound, how does the solubility kinetic read?
Answer: Its solubility kinetic is less than 0.7 µg/mL.

Question: With `Cc1ccc(Nc2nc(N)c(C#N)c(CC#N)c2C#N)cc1` as the compound, how does the solubility kinetic read?
Answer: Its solubility kinetic is 1.6 µg/mL (≈ 5.55 µM).

Question: With `CCc1ccc(N2CC(C(=O)Nc3cc(C)on3)CC2=O)cc1` (stereo not given) as the compound, how does the solubility kinetic read?
Answer: Its solubility kinetic is 26 µg/mL (≈ 83 µM).

Question: For `Cc1ccc(S(=O)(=O)NC2=NCN(CC(=O)[O-])CN2)cc1.[Na+]`, which solubility kinetic is on record?
Answer: Its solubility kinetic is greater than 50.1 µg/mL.

Question: Which solubility kinetic does the source give for `CCc1nccn1S(=O)(=O)c1ccccc1[N+](=O)[O-]` here?
Answer: Its solubility kinetic is greater than 42.2 µg/mL.

Question: With `CC(=O)c1sc(NC(=O)c2ccc(F)cc2)nc1-c1ccccc1` as the compound, how does the solubility kinetic read?
Answer: Its solubility kinetic is less than 0.4 µg/mL.

Question: Which solubility kinetic does the source give for `Cc1ccc2oc(=O)cc(CN3CC(C)OC(C)C3)c2c1` (stereo not given) here?
Answer: The solubility kinetic was greater than 43.1 µg/mL.

Question: For `O=C(NCCCc1ccccc1)c1cccc(Br)c1`, which solubility kinetic is on record?
Answer: The solubility kinetic was 19 µg/mL (≈ 59.7 µM).

Question: With `COc1cccc(C(=O)OCC(=O)NC(=O)NC2CCCC2)c1O` as the compound, how does the solubility kinetic read?
Answer: The solubility kinetic was 38.5 µg/mL (≈ 114 µM).

Question: For `O=S(=O)(c1cc(F)ccc1F)N1CCN(c2ncnc3ccccc23)CC1`, which solubility kinetic is on record?
Answer: The solubility kinetic was 56.7 µg/mL (≈ 145 µM).

Question: For `COC(=O)c1scc(S(C)(=O)=O)c1-n1cccc1`, which solubility kinetic is on record?
Answer: The solubility kinetic was 35.2 µg/mL (≈ 123 µM).

Question: For `COc1ccc(OCC(O)CNC(=O)Nc2ccccc2)cc1` (stereo not given), which solubility kinetic is on record?
Answer: The solubility kinetic was 26.9 µg/mL (≈ 85 µM).

Question: With `OC(CNC1Cc2ccccc2C1)COc1ccc(F)cc1` (stereo not given) as the compound, how does the solubility kinetic read?
Answer: The solubility kinetic was 44.3 µg/mL (≈ 147 µM).

Question: For `O=C(O)c1ccc(NC(=S)NCc2ccccc2)cc1`, which solubility kinetic is on record?
Answer: Its solubility kinetic is greater than 43 µg/mL.

Question: For `O=S(=O)(c1ccc(Cl)s1)N1CCCCC1`, which solubility kinetic is on record?
Answer: Its solubility kinetic is 22 µg/mL (≈ 82.8 µM).

Question: With `Cc1ccc(CNC(=O)COC(=O)c2cc(=O)[nH]c3ccccc23)cc1` as the compound, how does the solubility kinetic read?
Answer: The solubility kinetic was 5.5 µg/mL (≈ 15.7 µM).

Question: Which solubility kinetic does the source give for `CCc1ccc(C(=O)Nc2nc3ccccc3[nH]2)cc1` here?
Answer: The solubility kinetic was 0.5 µg/mL (≈ 1.88 µM).

Question: For `O=C(c1ccccc1)c1ccc(C(=O)N2CCN(c3ccc(O)cc3)CC2)cc1`, which solubility kinetic is on record?
Answer: The solubility kinetic was 47.4 µg/mL (≈ 123 µM).

Question: Which solubility kinetic does the source give for `O=C(NCC1CCCO1)C1CC(=O)N(c2ccc(Cl)cc2)C1` (stereo not given) here?
Answer: Its solubility kinetic is greater than 48.4 µg/mL.

Question: For `CCN(CC)Cc1c(O)ccc2c(=O)c(-c3ccccc3Cl)coc12`, which solubility kinetic is on record?
Answer: Its solubility kinetic is greater than 53.7 µg/mL.

Question: For `Cc1cccc(NC(=O)c2cccc(N3C(=O)C4C5C=CC(C6CC56)C4C3=O)c2)c1` (stereo not given), which solubility kinetic is on record?
Answer: The solubility kinetic was 1.5 µg/mL (≈ 3.76 µM).

Question: For `CCOC(=O)Cc1csc(-n2sc3ccccc3c2=O)n1`, which solubility kinetic is on record?
Answer: Its solubility kinetic is 29.8 µg/mL (≈ 93 µM).

Question: Which solubility kinetic does the source give for `CC(/C=C1\SC(=Nc2cccnc2)NC1=O)=C\c1ccccc1` here?
Answer: The solubility kinetic was 1.7 µg/mL (≈ 5.29 µM).
